In patent publication US20260297508A1, “MODULATORS OF PROTEIN SECRETION” (SANOFI, priority 2023, published 2026):

Legend:
[1] = test system: biotin-induced antibody release, U2OS clone #7 cells; assay: High-throughput RUSH screen: biotin-induced cytoplasmic GFP signal decay (antibody release), U2OS clone #7; format: cell-based, human; conditions: for inhibition of the biotin-induced decrease of the GFP signal: 4 h compound, then 40 μM biotin 1 h, screening; for retention of the RUSH antibody in the cytoplasm: screening campaigns, summary
Method: FIGS. 4A-4C show the high-throughput screening of chemical compound libraries for the identification of modulators of protein secretion. […] U2OS clone #7 is plated in 384-well plates and incubated for 24 h before treatment with each compound of the Prestwick, ICCB Known Bioactives, or Autophagy Compound Library at 2 concentrations, low and high (with a 10-fold difference). […] The results of the Prestwick library screening at the low drug concentration are plotted. Brefeldin A was used as a positive control of the inhibition of secretion. The compounds causing a cytoplasmic GFP intensity below that observed for biotin-only treated cells are potential enhancers of protein secretion.
U2OS cells were transfected with the streptavidin-KDEL plasmid using Lipofectamine 2000 (Thermo Fisher Scientific) and selected in medium supplemented with G418 (400 μg/mL, Gibco-Invitrogen) for 2 weeks. Limiting dilution in 96-well plates was used for single cell isolation from the selected pool. Clones were amplified and selected based on streptavidin immunofluorescence. Clone #BD6 showing the highest streptavidin expression was further expanded in medium supplemented with G418 (200 μg/mL) and transfected with the anti-PD-L1 IgG RUSH plasmid using Lipofectamine 2000 and selected in medium supplemented with G418 (200 μg/mL) and hygromycin (100 μg/mL, Santa Cruz Biotechnology) for 2 weeks. Limiting dilution in 96-well plates was used for single cell isolation from clone #BD6-derived selected pool. Clones were amplified and selected based on GFP fluorescence and clone #7 was selected for further characterization and screening campaigns.
U2OS clone #7 cells were seeded in black 384-well imaging plates (Greiner bio one), 2,000 cells/well, and incubated for 24 h at 37° C. in a humidified incubator with 5% CO2. Cells were treated on the next day with the compounds from either the Prestwick library at […], the ICCB Known Bioactives library at 1/100^e or 1/1000^e, or the autophagy compound library at 10 μM or 1 μM for 4 h. […] Cells were then fixed as described above and processed for subsequent automated image acquisition using a robot-assisted IXM XL BioImager (Molecular Devices, Sunnyvale, CA, USA) equipped with a Sola light source (Lumencor, Beaverton, OR, USA), adapted excitation and emission filters (Semrock) a 16-bit monochrome sCMOS PCO.edge 5.5 camera (PCO, Kelheim, Germany). A 20× PlanAPO objective (Nikon, Tokyo, Japan) was used to acquire a minimum of 4 view fields in each well. The acquired images were processed using the open-access R software (https://www.r-project.org) with the help of freely available packages EBImage (available on the Bioconductor repository https://www.bioconductor.org), and RBioFormats (https://github.com/aoles/RBioFormats), and the custom packages MetaxpR (https://github.com/asauvat/MetaxpR) and MorphR (https://github.com/kroemerlab/MorphR). Nuclei were first detected using Hoechst 33342 signal and used as a marker to detect cytoplasmic areas based on GFP signal, allowing for the evaluation of cytoplasmic GFP intensity. Data were thereafter extracted and statistically evaluated using R (https://www.r-project.org). Data were normalized using negative and positive controls, reduced and transformed into a Z-score. The experiments were repeated manually at low scale with selected drugs to confirm their effects on secretion, in this second set of assays, U2OS clone #7 cells incubated with secretion inhibitors were fixed and stained with Hoechst as described above for imaging and viability determination based on cell counts.
We next sought to use clone #7 in screening campaigns for the identification of drugs capable of enhancing or inhibiting antibody secretion. […] Cell counting was facilitated by nuclear counterstaining with Hoechst 33324 in order to assess viability and distinguish drug effects on the secretion kinetics from direct cytotoxicity and select relevant drugs for further characterization. […]

[2] = test system: TrKB; conditions: cited from earlier work
[3] = test system: biotin-induced antibody release, U2OS clone #7 cells; assay: Low-throughput validation by imaging of the biotin-induced antibody release (cytoplasmic GFP), clone #7; format: cell-based, human; conditions: FIG. 5C
Method: FIGS. 5A-5C show selection of potential enhancers of protein secretion. FIGS. 5A and 5B) show dot plot representations of drugs efficiency based on their Z-scores measured at low and high drug concentration (FIG. 5A, Prestwick library; FIG. 5B, ICCB Known Bioactives and TargetMol Autophagy libraries). Compounds selected for further characterization are listed. (FIG. 5C) Clone #7 was treated with the indicated compounds, fixed and analyzed as described in FIG. 4A legend.
FIG. 6A-6C show validation of enhancers of protein secretion.
(§1) U2OS clone #7 cells were seeded in black 384-well imaging plates (Greiner bio one), 2,000 cells/well, and incubated for 24 h at 37° C. in a humidified incubator with 5% CO2. Cells were treated on the next day with the compounds from either the Prestwick library at […], the ICCB Known Bioactives library at 1/100^e or 1/1000^e, or the autophagy compound library at 10 μM or 1 μM for 4 h. […] Cells were then fixed as described above and processed for subsequent automated image acquisition using a robot-assisted IXM XL BioImager (Molecular Devices, Sunnyvale, CA, USA) equipped with a Sola light source (Lumencor, Beaverton, OR, USA), adapted excitation and emission filters (Semrock) a 16-bit monochrome sCMOS PCO.edge 5.5 camera (PCO, Kelheim, Germany). A 20× PlanAPO objective (Nikon, Tokyo, Japan) was used to acquire a minimum of 4 view fields in each well. […] Nuclei were first detected using Hoechst 33342 signal and used as a marker to detect cytoplasmic areas based on GFP signal, allowing for the evaluation of cytoplasmic GFP intensity. Data were thereafter extracted and statistically evaluated using R (https://www.r-project.org). […]
Medium- and high-throughput screenings often yield false positive and negative hits, calling for independent validation in low-throughput experiments with orthogonal technologies. In a first round of experiments, we evaluated the effects of shortlisted compounds with potential antibody secretion enhancer activity. […]

[4] = test system: U2OS clone #7 cells; assay: Toxicity assay: Hoechst staining, number of adherent living cells; format: cell-based, human; conditions: 50 μg/mL; FIG. 7B
Method: (§2) FIGS. 7A and 7B show validation of inhibitors of protein secretion. […] Clone #7 cells were treated with the indicated compounds and supernatants were assayed for PD-L1 binding. Brefeldin A was used as a protein secretion inhibitor positive control. […] Hoechst 33324 fluorescence was measured, which enabled to number adherent living cells in each well.
as §1, with “Germany).” for “Germany). A 20× PlanAPO objective (Nikon, Tokyo, Japan) was used to acquire a minimum of 4 view fields in each well.”

[5] = test system: ErbB2 tyrosine kinase; conditions: ErbB2 vs EGFR; cited from earlier work
[6] = biological target: tyrosine kinase; conditions: tyrosine kinase inhibitor; cited from earlier work
[7] = test system: TrKA; conditions: cited from earlier work
[8] = test system: RUSH antibody secretion, U2OS clone #7 cells; assay: ELISA on immobilized PD-L1: RUSH antibody titer in supernatant of treated clone #7 cells; format: cell-based, human; conditions: 50 μg/mL; for inhibition of antibody secretion, validation: summary; for suppression of antibody secretion compared with brefeldin A: 4 h compound, biotin 30 min, FIG. 7A
Method: as §2
U2OS clone #7 cells were seeded in 6-well plates and kept for 24 h at 37° C. in a humidified incubator with 5% CO2. The next day, the supernatants were removed, cells were rinsed with 37° C. pre-heated PBS and new medium containing the chemical treatment was added for 4 h. […] Then supernatants were collected and used for the ELISA assay as follows. MaxiSorp 96-well plates (Thermo Fisher Scientific) were coated with 0.5 μg/mL hFc-human-PD-L1 (R&D Systems, Minneapolis, MN) in PBS for 5.5 h at RT. Coating solution was then removed and 2% BSA/PBS blocking solution was added overnight at 4° C. The next day, wells were washed 3 times with 0.5% BSA/0.05% Tween-20/PBS solution. Supernatants were added after a ⅓ dilution in 0.5% BSA/0.05% Tween-20/PBS, for 2.3 h at RT. Wells were washed 3 times with 0.5% BSA/0.05% Tween-20/PBS solution. Anti-human kappa light chain HRP-coupled antibody was added diluted in 0.5% BSA/0.05% Tween-20/PBS at 1/4000^e for 2.3 h at RT. Wells were washed 3 times with 0.5% BSA/0.05% Tween-20/PBS solution before incubation with substrate reagents pack (R&D Systems) for 15 min in the dark. Fifty μL of STOP solution (R&D Systems) were then added to each well and the absorbance in each well was subsequently measured at 450 nm, and 635 nm for background subtraction, using a VICTOR™ X4 (PerkinElmer, Waltham, MA).
Medium- and high-throughput screenings often yield false positive and negative hits, calling for independent validation in low-throughput experiments with orthogonal technologies. In a first round of experiments, we evaluated the effects of shortlisted compounds with potential antibody secretion enhancer activity. Compounds identified in the screening campaigns were tested again on clone #7 at a low concentration (FIG. 6A) or a ten-fold higher concentration (FIG. 6B) for their ability to increase antibody secretion. […] We further characterized these hits in an PD-L1 binding ELISA.

[9] = test system: TrKC; conditions: cited from earlier work
[10] = test system: NLRP3; conditions: cited from earlier work
[11] = test system: eryptosis; apoptosis; conditions: cited from earlier work

Structure (SMILES)	inhibition of the biotin-induced decrease of the GFP signal [1]	retention of the RUSH antibody in the cytoplasm [1]	inhibitory effect on TrKB [2]	effect on secretion by cell imaging [3]	cellular viability [4]	specificity to ErbB2 over EGFR [5]	IC50 [6] [µM]	inhibition of TrKA phosphorylation [7]	inhibition of antibody secretion, validation [8]	suppression of antibody secretion compared with brefeldin A [8]	inhibitory effect on TrKC [9]	NLRP3 activation, release of IL-1β [10]	apoptosis [11]	eryptosis [11]
CC(C)(C)c1cc(/C=C(\C#N)C(N)=S)cc(C(C)(C)C)c1O [tyrphostin AG-879]	inhibited the biotin-induced cytoplasmic GFP signal decay	caused the retention of the RUSH antibody in the cytoplasm	no inhibitory effect	inhibitory effect	without affecting cellular viability	at least 500 fold	10	effectively inhibits TrKA phosphorylation	validated as an inhibitor of antibody secretion	as potent as brefeldin A in suppressing antibody secretion	no inhibitory effect			
CO[C@@H]1C[C@@H](C[C@H]2CC[C@H](C)[C@H]([C@@H](C)C(=O)O)O2)O[C@]2(O[C@](C)([C@H]3CC[C@@](C)([C@@H]4O[C@@H]([C@H]5O[C@@](O)(CO)[C@H](C)C[C@@H]5C)C[C@@H]4C)O3)C[C@H]2C)[C@@H]1C [nigericin]	inhibited the biotin-induced cytoplasmic GFP signal decay	caused the retention of the RUSH antibody in the cytoplasm		inhibitory effect	without affecting cellular viability				confirmed as a secretion inhibitor	as potent as brefeldin A in suppressing antibody secretion		leading to the release of IL-1β	triggers apoptosis	promote eryptosis
